Measured values: article PMC8868160, “Antioxidant and Anti-α-Glucosidase Activities of Various Solvent Extracts and Major Bioactive Components from the Fruits of Crataegus pinnatifida” (Antioxidants, 2022)
Like-named read-outs stand apart in the source and are kept apart here.

Columns and labels:
[1] = ABTS radical scavenging activity; assay type: biochemical
Description: ABTS radical scavenging activity of each extract was measured based on the method with slight changes. In brief, the stock of working solution was prepared by the mix of 28 mM ABTS solution and 9.6 mM potassium persulfate with ddH2O (final concentration, 1/1, v/v) and leaving the mixture in the dark for about 16 h at room temperature before use. The working solution was diluted by EtOH to reach the absorbance of 0.70 ± 0.02 at 740 nm for further experiments. Different concentrations (200, 100, 50, 20, and 12.5 µg/mL) of extracts or compounds (10 µL) were mixed with the working solution (190 μL). The mixture was incubated at room temperature for 6 min, the antioxidant activity of the mixture was determined by calculating the decrease in absorbance measured at 740 nm by the following equation:ABTS radical inhibiting activity (%) = (Ac − At)/Ac × 100,
Where Ac and At are the absorbance of the control (untreated group) and test sample, respectively. The IC50 values of all tested activities were determined by the liner regression of the percentage of remaining ABTS radical against the sample’s concentration.

[2] = Hydroxyl radical scavenging activity (Fenton reaction, deoxyribose); assay type: biochemical
Description: The scavenging activity of hydroxyl radical was measured based on the method described by Mathew and Abraham with slight revision. In short, different concentrations (400, 200, 10, 50, and 25 µg/mL) of extracts or compounds (200 μL) were mixed with working solution (200 μL) contained 1 mM FeCl3, 1 mM EDTA, and 2.8 mM deoxyribose. Then, 20 μL ascorbic acid (1 mM) and 100 μL H2O2 (20 mM) in sodium phosphate buffer (20 mM pH 7.4) was added. The mixture was incubated in a water bath at 37 °C for 1 h to trigger the Fenton reaction and form a hydroxyl radical. After incubation, 2.8% TCA (200 μL) and 1% TBA (200 μL) were added and boiled in the dry bath at 100 °C for 1 h. The mixture was measured at 532 nm by the following equation:Hydroxyl radical scavenging activity (%) = (Ac − At)/Ac × 100, where At and Ac are the absorbance of the test sample and the control (untreated group), respectively. The IC50 values of all tested activities were determined by the linear regression of the percentage of remaining hydroxyl radical against the sample’s concentration.

[3] = Ferric reducing antioxidant power (FRAP); assay type: biochemical
Description: Ferric reducing antioxidant power was measured based on previous study with slight modification. The working solution was mixed with acetate buffer (pH 3.6), ferric chloride solution (20 mM), and TPTZ solution (10 mM TPTZ in 40 mM HCl) in a proportion of 10:1:1, respectively, and freshly prepared before used. An amount of 900 μL of the working solution was warmed to 37 °C and then mixed with 100 μL of the diluted sample, blank or standard in a microcentrifuge tube. The tubes were vortexed and in the dry bath at 37 °C for 40 min. Absorbance was measured at 593 nm. […] Results are expressed in mM TE/g dry weight. Additional dilution was needed if the FRAP value measured was over the linear range of the standard curve.

[4] = DPPH radical scavenging activity; assay type: biochemical
Description: The scavenging activity of DPPH radical was investigated as described with slight modification. DPPH solution was prepared diluted by EtOH to reach the final concentration of 200 µM. Different concentrations (200, 100, 50, 25, and 12.5 µg/mL) of extracts or compounds (100 µL) were mixed with DPPH solution (100 µL) and incubated for 30 min at room temperature and in darkness, and the absorbance of the mixture was measured at 520 nm. DPPH radical scavenging activity was calculated with the following formula: DPPH scavenging activity (%) = (Ac − At)/Ac × 100, where At is the absorbance of the test sample, and Ac is the absorbance of the control (untreated group). BHT was used as the positive control. All half-maximal inhibitory concentration (IC50) values of tested activities were determined by the linear regression of the percentage of remaining DPPH radical against the sample’s concentration.

[5] = Superoxide radical scavenging activity (PMS/NADH-NBT system); assay type: biochemical; settings: isolated components (Table 5)
Description: The scavenging activity of superoxide anion radical (O2^•−) was evaluated using a modified method. NBT (300 μM), NADH (468 μM), and PMS (120 μM) were prepared with dilution by Tris-HCl buffer (16 mM, pH 8.0), respectively. An amount of 50 μL of NBT, PMS, and different concentrations (400, 200, 10, 50, and 25 µg/mL) of extracts or compounds were mixed. An amount of 50 μL NADH solution was added, and the reaction was initiated to produce superoxide radicals. The absorbance was measured at 560 nm after incubating at room temperature for 5 min. The scavenging activity was measured by the following equation:Superoxide radical scavenging activity = (Ac − At)/Ac × 100, where At is the absorbance of the test sample, and Ac is the absorbance of the control (untreated group). The IC50 values of all tested activities were determined by the linear regression of the percentage of remaining superoxide radical against the sample concentration.

α-glucosidase = target: T1, α-glucosidase (Saccharomyces cerevisiae, UniProt P53341); experiment: biochemical
T1 construct: purchased Sigma-Aldrich
Description: The inhibition assay of α-glucosidase was conducted using the conditions previously reported with slight modifications. The α-Glucosidase solution was diluted by 0.1 M sodium phosphate buffer (pH 6.8) to 1 U/mL. […] Subsequently, p-NPG (0.53 mM; 380 μL), the substrate, was added and incubated in dry baths at 37 °C for 40 min after the mixture vortexed. The reaction was terminated after adding 0.1 M Na2CO3 solution (500 μL). The absorbance of released p-nitrophenol (p-PNP) was measured by calculating the decrease in absorbance measured at 400 nm by the following equation:α-Glucosidase inhibition (%) = (Ac − At)/Ac × 100, where Ac is the absorbance of the control (untreated group), and At is the absorbance of the test sample. The IC50 values of all tested activities were determined by the linear regression of the percentage of remaining α-glucosidase against the sample concentration.

[6] = isolated components, BHT positive control (Table 5)
[7] = solvent extracts, BHT positive control (Table 2)
[8] = isolated components, mM Trolox equivalents per gram (Table 5)

T1 sequence (P53341 whole entry): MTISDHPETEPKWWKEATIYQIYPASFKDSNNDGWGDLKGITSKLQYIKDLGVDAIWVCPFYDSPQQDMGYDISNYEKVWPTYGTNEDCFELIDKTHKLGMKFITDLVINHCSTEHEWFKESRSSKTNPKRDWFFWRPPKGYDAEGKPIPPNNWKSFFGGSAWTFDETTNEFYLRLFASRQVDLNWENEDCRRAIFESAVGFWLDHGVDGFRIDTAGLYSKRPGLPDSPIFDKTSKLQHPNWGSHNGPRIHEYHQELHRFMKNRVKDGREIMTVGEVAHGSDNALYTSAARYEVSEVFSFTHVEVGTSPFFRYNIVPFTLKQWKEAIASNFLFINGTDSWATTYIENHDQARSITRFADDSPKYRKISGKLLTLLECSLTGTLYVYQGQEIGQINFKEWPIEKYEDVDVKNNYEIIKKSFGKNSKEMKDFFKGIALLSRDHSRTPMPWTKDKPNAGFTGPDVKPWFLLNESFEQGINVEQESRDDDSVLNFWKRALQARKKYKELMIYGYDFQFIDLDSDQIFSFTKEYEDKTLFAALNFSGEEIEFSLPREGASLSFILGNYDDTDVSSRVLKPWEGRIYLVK

Row | SMILES | ABTS IC50 [1, 6] | ABTS IC50 [1, 7] | Hydroxyl IC50 [2, 6] | Hydroxyl IC50 [2, 7] | FRAP (TE) [3, 8] | FRAP (TE) ([3]; millimolar Trolox equivalents per gram of extract (Table 2)) | DPPH IC50 [4, 6] | DPPH IC50 ([4]; solvent extracts of C. pinnatifida fruits, BHT positive control (Table 2)) | Superoxide IC50 [5] | FRAP (TE) ([3]; isolated components, mM Trolox equivalents per gram (Table 5), listed as procyanidin B2) | IC50 (α-glucosidase) | FRAP (TE) ([3]; isolated components, mM Trolox equivalents per gram (Table 5), listed as epicatechin) | IC50 (α-glucosidase; read-out: α-Glucosidase IC50 (converted))
1 | Cc1cc(C(C)(C)C)c(O)c(C(C)(C)C)c1 [BHT, Butylated hydroxytoluene, reference compound] | 16.13 ± 3.29 µg/mL | 12.34 ± 0.29 µg/mL | 60.62 ± 2.58 µg/mL | 61.51 ± 2.46 µg/mL | 4257.97 ± 44.90 mM/g | 4257.97 ± 44.90 mM/g | 24.04 ± 4.40 µg/mL | 34.28 ± 1.40 µg/mL | – | – | – | – | –
2 | Oc1cc(O)c2c(c1)O[C@H](c1ccc(O)c(O)c1)[C@H](O)[C@H]2c1c(O)cc(O)c2c1O[C@H](c1ccc(O)c(O)c1)[C@H](O)C2 [Procyanidin B2, procyanidin B2] | 2.91 ± 0.57 µg/mL | – | 13.69 ± 1.88 µg/mL | – | 11,092.44 ± 32.92 mM/g | – | 2.81 ± 0.08 µg/mL | – | 37.22 ± 0.63 µg/mL | ≥ 7726.67 ± 39.97 mM/g | 205 µM | – | –
3 | Oc1cc(O)c2c(c1)O[C@H](c1ccc(O)c(O)c1)[C@H](O)C2 [Epicatechin, epicatechin] | 3.75 ± 0.03 µg/mL | – | 20 ± 3.49 µg/mL | – | 13,165.19 ± 42.42 mM/g | – | 2.53 ± 0.25 µg/mL | – | 41.56 ± 0.20 µg/mL | – | – | ≥ 7726.67 ± 39.97 mM/g | 282 µM
4 | O=c1c(O[C@@H]2O[C@H](CO)[C@H](O)[C@H](O)[C@H]2O)c(-c2ccc(O)c(O)c2)oc2cc(O)cc(O)c12 [Hyperoside, hyperoside] | 18.00 ± 0.16 µg/mL | – | – | – | – | – | 5.29 ± 0.17 µg/mL | – | 10.59 ± 0.22 µg/mL | – | 75.3 µM | – | –
